The text below walks through data of PubChem BioAssay AID330 (DTP/NCI, 2004).

In this test the test system is P388 leukemia ip, CD2F1 mice, survival T/C. In words: NCI In Vivo Anticancer Drug Screen. Data for tumor model P388 Leukemia (intraperitoneal) in CD2F1 (CDF1) mice. As to conditions: endpoint: median survival time, higher = longer survival. An outline of the steps:
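Mice carrying the transplanted tumor received test compound or vehicle. Survival was recorded in each group, and the value is the treated-group measurement divided by that of the vehicle-treated control group.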

[1] abbreviates: dose: 50.0 mg/kg/injection, schedule: Q01DX009 (ip), vehicle: saline.
The mark [2] stands for this setting: dose: 100.0 mg/kg/injection, schedule: Q01DX009 (ip), vehicle: saline.
Where [3] appears, read: dose: 200.0 mg/kg/injection, schedule: Q01DX009 (ip), vehicle: saline.
Where [4] appears, read: dose: 25.0 mg/kg/injection, schedule: Q01DX009 (ip), vehicle: saline with Tween-80.
[5] abbreviates: dose: 25.0 mg/kg/injection, schedule: Q04DX003 (ip), vehicle: saline with Tween-80.
[6] abbreviates: dose: 50.0 mg/kg/injection, schedule: Q01DX009 (ip), vehicle: saline with Tween-80.
Where [7] appears, read: dose: 50.0 mg/kg/injection, schedule: Q04DX003 (ip), vehicle: saline with Tween-80.
The mark [8] stands for this setting: dose: 12.5 mg/kg/injection, schedule: Q01DX005 (ip), vehicle: saline with Tween-80.
Where [9] appears, read: dose: 25.0 mg/kg/injection, schedule: Q01DX005 (ip), vehicle: saline with Tween-80.
[10] abbreviates: dose: 50.0 mg/kg/injection, schedule: Q01DX005 (ip), vehicle: saline with Tween-80.
The mark [11] stands for this setting: dose: 200.0 mg/kg/injection, schedule: Q01DX005 (ip), vehicle: saline with Tween-80.
The mark [12] stands for this setting: dose: 200.0 mg/kg/injection, schedule: Q04DX002 (ip), vehicle: saline with Tween-80.
[13] abbreviates: dose: 400.0 mg/kg/injection, schedule: Q04DX002 (ip), vehicle: saline with Tween-80.
[14] abbreviates: dose: 100.0 mg/kg/injection, schedule: Q01DX009 (ip), vehicle: saline with Tween-80.
The mark [15] stands for this setting: dose: 200.0 mg/kg/injection, schedule: Q01DX009 (ip), vehicle: saline with Tween-80.
The mark [16] stands for this setting: dose: 100.0 mg/kg/injection, schedule: Q04DX002 (ip), vehicle: saline with Tween-80.
Setting [17] is: dose: 60.0 mg/kg/injection, schedule: Q01DX005 (ip), vehicle: saline with Tween-80.
The mark [18] stands for this setting: dose: 120.0 mg/kg/injection, schedule: Q01DX005 (ip), vehicle: saline with Tween-80.
[19] abbreviates: dose: 240.0 mg/kg/injection, schedule: Q01DX005 (ip), vehicle: saline with Tween-80.
[20] abbreviates: dose: 50.0 mg/kg/injection, schedule: Q01DX005 (ip), vehicle: Klucel (hydroxypropylcellulose) (HPC).
The mark [21] stands for this setting: dose: 100.0 mg/kg/injection, schedule: Q01DX005 (ip), vehicle: Klucel (hydroxypropylcellulose) (HPC).
The mark [22] stands for this setting: dose: 200.0 mg/kg/injection, schedule: Q01DX005 (ip), vehicle: Klucel (hydroxypropylcellulose) (HPC).
Setting [23] is: dose: 6.25 mg/kg/injection, schedule: Q01DX005 (ip), vehicle: saline with Tween-80.

“And” between values parts separate entries of the source, which are not always exact repeats. Equal values may be shown once. Inconclusive results and toxic doses are left out.

`O=S(=O)(OC1CCC2CCC1O2)c1ccc(Br)cc1` (configuration not stated): the T/C was 86 % of control under setting [1], 100 % of control under setting [2] and 100 % of control under setting [3].

In the case of `Cc1ccc(N=NN(C)C)cc1`, the T/C by setting is: (dose: 12.5 mg/kg/injection, schedule: Q01DX009 (ip), vehicle: saline with Tween-80) 110 % of control; (dose: 12.5 mg/kg/injection, schedule: Q04DX003 (ip), vehicle: saline with Tween-80) 104 % of control; under setting [4], 115 % of control; under setting [5], 100 % of control; (dose: 33.0 mg/kg/injection, schedule: Q01DX009 (ip), vehicle: saline with Tween-80) 118 % of control; under setting [6], 122 % of control. In addition, the T/C under setting [7] was 109 % of control.

Turning to `COc1ccc(/C(C[P+](c2ccccc2)(c2ccccc2)c2ccccc2)=N/OC(C)(C)OC)cc1`, the T/C runs as follows: (dose: 6.25 mg/kg/injection, schedule: Q01DX009 (ip), vehicle: Klucel (hydroxypropylcellulose) (HPC)) 98 % of control; (dose: 12.5 mg/kg/injection, schedule: Q01DX009 (ip), vehicle: Klucel (hydroxypropylcellulose) (HPC)) 100 % of control; (dose: 25.0 mg/kg/injection, schedule: Q01DX009 (ip), vehicle: Klucel (hydroxypropylcellulose) (HPC)) 106 % of control; (dose: 50.0 mg/kg/injection, schedule: Q01DX009 (ip), vehicle: Klucel (hydroxypropylcellulose) (HPC)) 101 % of control.

Regarding `CCN(CC)CCC#N`, the T/C was 94 % of control under setting [1], 87 % of control under setting [2] and 88 % of control under setting [3].

As for `N#CC1=CC2C3C(=O)N(c4ccccc4)C(=O)C3C1N(Cc1ccccc1)C2c1ccccc1` (configuration not stated), the T/C under setting [8] is 95 % of control; the T/C (dose: 12.5 mg/kg/injection, schedule: Q04DX002 (ip), vehicle: saline with Tween-80) was 102 % of control; the T/C under setting [9] was 91 % of control; the T/C (dose: 25.0 mg/kg/injection, schedule: Q04DX002 (ip), vehicle: saline with Tween-80) is 94 % of control; the T/C under setting [10] is 89 % of control; the T/C (dose: 50.0 mg/kg/injection, schedule: Q04DX002 (ip), vehicle: saline with Tween-80) was 94 % of control. The T/C runs as follows: under setting [11], 87 % of control; under setting [12], 87 % of control; under setting [13], 89 % of control.

Turning to `CCOC(=O)C(C)(C)Oc1ccc(Cl)cc1`, the T/C reads like this: under setting [6], 100 % of control; under setting [14], 93 % of control; under setting [15], 112 % of control.

For `CCOC(=O)CCCCSCCCCC(=O)OCC`, the T/C (dose: 100.0 mg/kg/injection, schedule: Q01DX001 (ip), vehicle: saline with Tween-80) was 100 % of control; the T/C (dose: 200.0 mg/kg/injection, schedule: Q01DX001 (ip), vehicle: saline with Tween-80) was 100 % of control; the T/C (dose: 400.0 mg/kg/injection, schedule: Q01DX001 (ip), vehicle: saline with Tween-80) is 100 % of control.

As for `COc1cc(-c2oc3c(OC)cc(OC)c(O)c3c(=O)c2OC)cc(OC)c1OC`, the T/C is 96 % of control under setting [16], 105 % of control under setting [12] and 96 % of control under setting [13].

On to `Clc1nc2nc[nH]c2nc1Cl`, for which the T/C runs as follows: (dose: 11.0 mg/kg/injection, schedule: Q01DX009 (ip), vehicle: saline with Tween-80) 100 % of control; (dose: 16.5 mg/kg/injection, schedule: Q01DX009 (ip), vehicle: saline with Tween-80) 104 % of control; under setting [4], 100 % of control; under setting [5], 91 % of control; (dose: 37.5 mg/kg/injection, schedule: Q01DX009 (ip), vehicle: saline with Tween-80) 100 % of control.

For the molecule `COc1ccc(C2c3cc4c(cc3OC3(O)CCCC(=O)C23)OCO4)cc1` (configuration not stated), the T/C under setting [17] was 100 % of control, the T/C under setting [18] is 100 % of control and the T/C under setting [19] was 93 % of control.

As for `CC1(C(Cl)(Cl)Cl)C=C(Cl)C(=O)C(Cl)=C1`, the T/C runs as follows: (dose: 25.0 mg/kg/injection, schedule: Q01DX005 (ip), vehicle: Klucel (hydroxypropylcellulose) (HPC)) 99 % of control; under setting [20], 98 % of control and 92 % of control; under setting [21], 102 % of control; under setting [22], 92 % of control.

Consider `COc1cc(C(Nc2ncccn2)c2cc3c(cc2OC(C)=O)OCO3)cc(OC)c1OC` (configuration not stated), for which the T/C is, setting by setting: under setting [17], 98 % of control; under setting [18], 98 % of control; under setting [19], 95 % of control.

`CC1=CC(O)CC(C)(C)C1` (configuration not stated): the T/C was 106 % of control under setting [1], 100 % of control under setting [2] and 99 % of control under setting [3].

For the molecule `BrCCc1cc(Br)c(CCBr)cc1Br`, the T/C is 97 % of control under setting [20], 97 % of control under setting [21] and 107 % of control under setting [22].

As to `CCN(CC)c1c(C)nnc2c3c(-c4ccccc4)c(-c4ccccc4)nnc3nn12`, the T/C under setting [7] was 86 % of control; the T/C (dose: 200.0 mg/kg/injection, schedule: Q04DX003 (ip), vehicle: saline with Tween-80) is 86 % of control; the T/C (dose: 400.0 mg/kg/injection, schedule: Q04DX003 (ip), vehicle: saline with Tween-80) was 91 % of control.

Regarding `Nc1ccc(N=Nc2ccc3cc4ccc(N=Nc5ccc(N)nc5N)cc4nc3c2)c(N)n1`, the T/C is, setting by setting: under setting [23], 92 % of control; under setting [8], 100 % of control and 106 % of control; under setting [9], 100 % of control and 116 % of control; under setting [10], 95 % of control; (dose: 100.0 mg/kg/injection, schedule: Q01DX005 (ip), vehicle: saline with Tween-80) 106 % of control; under setting [11], 109 % of control.

Regarding `CC(C)C(=O)CP(=O)(O)O`, the T/C reads like this: under setting [1], 106 % of control; under setting [2], 101 % of control; under setting [3], 108 % of control.

With `Oc1ccc(C2c3ccccc3Oc3ccccc32)cc1`, the T/C is 101 % of control under setting [6], 111 % of control under setting [14] and 118 % of control under setting [15].

As for `CNC(=O)Nc1nccs1`, the T/C is, setting by setting: under setting [6], 105 % of control; under setting [14], 96 % of control; under setting [15], 97 % of control.

In the case of `O=C(CCN1C(=O)c2ccccc2C1=O)c1cnc(N2C(=O)c3ccccc3C2=O)[nH]1`, the T/C reads like this: (dose: 20.0 mg/kg/injection, schedule: Q01DX005 (ip), vehicle: Klucel (hydroxypropylcellulose) (HPC)) 98 % of control; (dose: 40.0 mg/kg/injection, schedule: Q01DX005 (ip), vehicle: Klucel (hydroxypropylcellulose) (HPC)) 97 % of control; (dose: 80.0 mg/kg/injection, schedule: Q01DX005 (ip), vehicle: Klucel (hydroxypropylcellulose) (HPC)) 91 % of control.

`C[C@@H]1C[C@@H]2c3cccc4[nH]cc(c34)C[C@H]2N(C)C1`: the T/C is, setting by setting: (dose: 3.12 mg/kg/injection, schedule: Q01DX005 (ip), vehicle: saline with Tween-80) 98 % of control; under setting [23], 98 % of control; under setting [8], 100 % of control.

Consider `CC(=O)[C@]1(O)Cc2c(O)c3c(c(O)c2[C@@H](OC2CC(NC(=O)C(F)(F)F)C(O)C(C)O2)C1)C(=O)c1c(O)cccc1C3=O` (some centres not stated), for which the T/C is, setting by setting: (dose: 12.5 mg/kg/injection, schedule: Q04DX003 (ip), vehicle: water) 96 % of control; (dose: 25.0 mg/kg/injection, schedule: Q04DX003 (ip), vehicle: water) 118 % of control; (dose: 100.0 mg/kg/injection, schedule: Q04DX003 (ip), vehicle: water) 118 % of control; (dose: 200.0 mg/kg/injection, schedule: Q04DX003 (ip), vehicle: water) 214 % of control.

For the molecule `CCN=C(C)C1=C(O)c2ccccc2C1=O`, the T/C is, setting by setting: under setting [16], 97 % of control; under setting [12], 98 % of control; under setting [13], 98 % of control.
